Here are results for two molecules from patent US20260216140A1, “USE OF ERGOTHIONEINE IN PREPARATION OF PRODUCT FOR PREVENTING OR INHIBITING CELL DAMAGE CAUSED BY ACETALDEHYDE” (BLOOMAGE BIOTECHNOLOGY CORPORATION LIMITED, priority 2022, published 2026).

Structures are written as SMILES. Where a name gives a salt, the structure may show the parent alone.

What all share (type): cell-based
Data set [1] relates to CA9-22 cells. The data set can be described thus: MTT cell activity of CA9-22 cells co-cultured with acetaldehyde (cell damage dose finding). To be noted: for Cell activity: 1 day, MTT, T/NT vs untreated = 100%. The protocol: • Experimental materials: acetaldehyde, DMEM medium. • Experimental sample solutions: 17.7 M acetaldehyde was diluted with DMEM medium to prepare experimental sample solutions with different final concentrations, and the concentrations are shown in Table 2. • Methods: After CA9-22 cells were co-cultured with different experimental sample solutions for 1 day, the experimental sample solutions were removed and MTT was added. After 3 hours, the supernatant was carefully aspirated and dimethyl sulfoxide (DMSO) was added. The absorbance of each well at 550 nm was detected by a microplate reader. The untreated well was used as control, the absorbance of the sample well was defined as T, the absorbance of the untreated well was defined as NT, NT was taken as 100%, and the ratio of T/NT of the sample well was taken as the cell activity.

For data set [2], the system named is CA9-22 cells. The data set can be described thus: MTT cell activity of CA9-22 cells co-cultured with acetaldehyde plus ergothioneine (inhibition of acetaldehyde cell damage). To be noted: for Cell activity: 1 day, MTT.
Text: • Experimental materials: acetaldehyde, ergothioneine and DMEM medium. • Experimental sample solutions: ergothioneine powder and 17.7M acetaldehyde were respectively diluted with DMEM medium, and then the two solutions were mixed in different ratios to prepare experimental sample solutions with different final concentrations, and the concentrations are shown in Table 3. • Methods: After CA9-22 cells were co-cultured with different experimental sample solutions for 1 day, the experimental sample solutions were removed and MTT was added. After 3 hours, the supernatant was carefully aspirated and dimethyl sulfoxide (DMSO) was added. The absorbance of each well at 550 nm was detected by a microplate reader. The untreated wells was used as control, the absorbance of the sample wells was defined as T, the absorbance of the untreated well was defined as NT, NT was taken as 100%, and the ratio of T/NT of the sample well was taken as the cell activity. On the basis of meeting the requirements of significant difference, the greater the cell activity %, the better the effect of inhibiting cell damage caused by acetaldehyde.
Data set [3] concerns CA9-22 cells. The data set can be described thus: MTT cell activity of CA9-22 cells co-cultured with ergothioneine alone (cytotoxicity). To be noted: for Cell activity: 1 day, MTT, T/NT vs untreated = 100%. How it is done:
• Experimental materials: ergothioneine, DMEM medium. • Experimental sample solutions: ergothioneine powder was dissolved in DMEM medium to prepare experimental sample solutions with different final concentrations, and the concentrations are shown in Table 1. • Methods: CA9-22 cells purchased from ATCC were co-cultured with different experimental sample solutions for 1 day, then the experimental sample solutions were removed and MTT was added. After 3 hours, the supernatant was carefully aspirated and dimethyl sulfoxide (DMSO) was added. The absorbance of each well at 550 nm was detected by a microplate reader. The untreated well was used as control, the absorbance of the sample well was defined as T, the absorbance of the untreated well was defined as NT, NT was taken as 100%, and the ratio of T/NT of the sample well was taken as the cell activity.

For the molecule `CC=O` [Acetaldehyde, acetaldehyde], the Cell activity is recorded as 96% in the data set with CA9-22 cells [1] (acetaldehyde 0.0001M); 93% in the data set on CA9-22 cells [1] (acetaldehyde 0.001M); 93% with CA9-22 cells [1] (acetaldehyde 0.005M); 89% in the data set on CA9-22 cells [1] (acetaldehyde 0.01M); 70% in the data set on CA9-22 cells [1] (acetaldehyde 0.02M); 70% in the data set on CA9-22 cells [2] (acetaldehyde 0.02 M alone, no ergothioneine (sample 2)). Moreover, the Cell activity with CA9-22 cells [2] (acetaldehyde 0.02 M alone, no ergothioneine (sample 2), listed as acetaldehyde) was 70%. Also, the “Cell damage after treating cells” value in the data set on CA9-22 cells [1] (different concentrations of acetaldehyde, more obvious with increasing concentration) is recorded as “will cause cell damage”.

In the case of `C[N+](C)(C)[C@@H](Cc1c[nH]c(=S)[nH]1)C(=O)[O-]` [Ergothioneine, 2-mercaptohistidine trimethyl internal salt], the Cell activity in the data set on CA9-22 cells [2] (acetaldehyde 0.02 M + ergothioneine 0.01 μM (sample 3)) stood at 71%; in the data set on CA9-22 cells [2] (acetaldehyde 0.02 M + ergothioneine 0.05 μM (sample 4)) it was 76%; with CA9-22 cells [2] (acetaldehyde 0.02 M + ergothioneine 0.1 μM (sample 5)), 81%; in the data set with CA9-22 cells [2] (acetaldehyde 0.02 M + ergothioneine 0.5 μM (sample 6)), 83%; in the data set on CA9-22 cells [2] (acetaldehyde 0.02 M + ergothioneine 2.5 μM (sample 7)) it was 83%; in the data set with CA9-22 cells [2] (acetaldehyde 0.02 M + ergothioneine 12.5 μM (sample 8)), 85%. Also, the Cell activity is reported as 101% in the data set on CA9-22 cells [3] (ergothioneine 0.1 μM), 100% with CA9-22 cells [3] (ergothioneine 0.5 μM), 107% in the data set with CA9-22 cells [3] (ergothioneine 2.5 μM) and 106% with CA9-22 cells [3] (ergothioneine 12.5 μM). Also, in the data set with CA9-22 cells [2] (acetaldehyde 0.02 M, ergothioneine added), the “Effect on cell damage caused by acetaldehyde” value was “can reduce the cell damage caused by acetaldehyde”. The Cytotoxicity entry in the data set with CA9-22 cells [3] (0.1-12.5 μM, test conditions of Example 1) is “no cytotoxicity”.
